From PubChem BioAssay (NCI)
Where “and” joins values, the source holds several entries; their conditions need not be identical. Equal values may be shown once.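 Tested at 5 concentrations; 48 h exposure; 96-well plates; endpoints linearly interpolated, else capped at highest concentration. The concentration for 50% growth inhibition is given as GI50. TGI denotes the concentration required for complete inhibition of growth.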

What was measured:
Assay in all cases: NCI-60 cell line screen, 48 h
[1] = system: A549 NSCLC
[2] = system: CAKI-1 renal
[3] = system: EKVX NSCLC
[4] = system: HCC-2998 colon
[5] = system: HCT-15 colon
[6] = system: HOP-92 NSCLC
[7] = system: MCF7 breast
[8] = system: NCI-H522 lung
[9] = system: NCI/ADR-RES ovarian
[10] = system: SNB-75 CNS

With COc1cccc2c1C(=O)c1c(O)c3c(c(O)c1C2=O)C[C@@](O)(/C(C)=N/NC(=O)c1ccccc1)C[C@@H]3OC1CC(N)C(O)C(C)O1 (some centres undefined) the TGI [1] was 4250 nM, the TGI [2] was 1470 nM and the TGI [3] was 3020 nM. It also gave a TGI [4] of 2020 nM, a TGI [5] of 19900 nM and a TGI [6] of 1110 nM. It also gave a TGI [7] of 2930 nM, a TGI [8] of 1100 nM and a TGI [9] of 76000 nM. It also gave a TGI [10] of 1970 nM.

With COC(=O)c1cc2c3c(cc(O)c2[nH]1)N(C(=O)C1Cc2cc(OC)c(OC)c(OC)c2N1)CC3CCl (centres undefined) the GI50 [1] was < 10 nM, the TGI [1] was 1360 nM and the GI50 [3] was < 10 nM. The TGI [3] was < 10 nM, the GI50 [4] was < 10 nM and the TGI [4] was 113 nM. The GI50 [5] was < 10 nM, the TGI [5] was 10400 nM and the GI50 [8] was < 10 nM. The TGI [8] was < 10 nM, the GI50 [9] was < 10 nM and the TGI [9] was > 100000 nM.

With NC(Cc1c[nH]c2ccccc12)C(=O)O (centres undefined) the TGI [1] was > 300000 nM, the TGI [2] was > 300000 nM and the TGI [3] was > 300000 nM. For the same compound, the TGI [4] was > 300000 nM, the TGI [5] was > 191000 nM and the TGI [6] was > 300000 nM. The TGI [7] was > 300000 nM, the TGI [8] was > 300000 nM and the TGI [9] was > 300000 nM. The TGI [10] was > 300000 nM.

Nc1nc(N)c2nc(-c3ccco3)cnc2n1 was tested, and the TGI [1] was > 100000 nM, the TGI [2] was > 100000 nM and the TGI [3] was > 100000 nM. The TGI [4] was > 100000 nM, the TGI [5] was > 100000 nM and the TGI [6] was > 100000 nM. For the same compound, the TGI [8] was > 100000 nM and the TGI [10] was 80000 nM.

For O=C1C=C(N2CC2)C(=O)C=C1N1CC1, the GI50 [1] was 145 nM and 860 nM, the TGI [1] was 11200 nM and the GI50 [2] was 0.251 nM. For the same compound, the TGI [2] was 24.7 nM and 67.5 nM, the GI50 [3] was 404 nM and 2650 nM and the TGI [3] was 4840 nM. The GI50 [4] was 23.4 nM, the TGI [4] was 150 nM and 739 nM and the GI50 [5] was 20.7 nM. For the same compound, the TGI [5] was 231 nM and 1210 nM, the GI50 [6] was 152 nM and the TGI [6] was 576 nM and 1560 nM. It also gave a GI50 [7] of 2.05 nM, a TGI [7] of 71.2 nM and a GI50 [8] of 8.26 nM. The TGI [8] was 72.7 nM and 144 nM, the GI50 [9] was 24.1 nM and the GI50 [10] was 7.36 nM.

In the case of CC[C@@]1(O)C(=O)OCc2c1cc1n(c2=O)Cc2c-1nc1ccccc1c2/C=N\NC(=O)C(N)Cc1cnc[nH]1 (some centres undefined), the TGI [1] is reported as > 100000 nM, the TGI [2] is reported as 3210 nM and the TGI [3] is reported as > 100000 nM. The TGI [4] was > 67500 nM, the TGI [5] was > 100000 nM and the TGI [6] was > 41500 nM. For the same compound, the TGI [7] was 35300 nM, the TGI [8] was > 19700 nM and the TGI [10] was 36500 nM.

With COc1ccc(CCCC(=O)O)c(C)c1 the TGI [1] was > 100000 nM, the TGI [2] was 51100 nM and the TGI [3] was > 100000 nM. The TGI [5] was > 100000 nM, the TGI [6] was 90800 nM and the TGI [8] was > 100000 nM. The TGI [9] was > 100000 nM.
